In article PMC12820599, “Structural characterisation of nucleotide sugar short‐chain dehydrogenases/reductases from the thermophilic pseudomurein‐containing methanogen Methanothermobacter thermautotrophicus ΔH” (The Febs Journal, 2025):

What was measured:
Format in all cases: binding
Mth375 [1] = biological target: T1, Mth375 (Methanothermobacter thermautotrophicus, UniProt O26475); test: X-ray crystal structure ([…] Å); conditions: coenzyme site (Rossmann fold); no coenzyme added (co-purified); redox state not settled (NAD/NADH/NAD(H) printed); UDP bound
T1 construct: gene MTH_375; recombinant hexahistidine-tagged (pET100D), E. coli BL21-Rosetta 2; 332 residues seen; dimer; Cys131 (and Cys13 in Mth375_NU) modified by beta-mercaptoethanol
T1 sequence (O26475 entry or part of it): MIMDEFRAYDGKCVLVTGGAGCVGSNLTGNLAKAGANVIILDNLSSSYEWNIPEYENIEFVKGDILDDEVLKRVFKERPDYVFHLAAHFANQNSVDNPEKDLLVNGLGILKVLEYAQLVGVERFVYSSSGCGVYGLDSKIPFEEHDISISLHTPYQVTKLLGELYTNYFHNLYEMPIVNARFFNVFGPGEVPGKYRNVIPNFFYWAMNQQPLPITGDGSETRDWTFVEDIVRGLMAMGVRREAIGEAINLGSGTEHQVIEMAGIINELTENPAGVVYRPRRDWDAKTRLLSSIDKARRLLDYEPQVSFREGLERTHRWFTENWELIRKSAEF

Mth373 [2] = biological target: T2, Mth373 (Methanothermobacter thermautotrophicus, UniProt O26473); test: X-ray crystal structure ([…] and […] Å); conditions: 2.0 mM NADH added; coenzyme site of each monomer; printed as NADH, NAD(H) and NAD
T2 construct: gene MTH_373; recombinant hexahistidine-tagged, E. coli LOBSTR BL21*; 311-residue monomer; dimer
T2 sequence (O26473 entry or part of it): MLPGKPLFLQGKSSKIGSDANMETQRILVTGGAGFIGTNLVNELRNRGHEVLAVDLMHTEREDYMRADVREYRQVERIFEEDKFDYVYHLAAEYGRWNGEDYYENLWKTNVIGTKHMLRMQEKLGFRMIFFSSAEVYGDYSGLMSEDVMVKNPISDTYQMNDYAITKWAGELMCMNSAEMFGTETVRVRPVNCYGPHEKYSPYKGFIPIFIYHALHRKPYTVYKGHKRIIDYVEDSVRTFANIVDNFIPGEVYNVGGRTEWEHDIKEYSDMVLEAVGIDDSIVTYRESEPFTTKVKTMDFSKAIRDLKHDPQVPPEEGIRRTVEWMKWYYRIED

Mth373 [3] = biological target: T2, Mth373; test: X-ray crystal structure ([…] Å); conditions: co-crystallised with 1.0 mM UDP and 2.0 mM NADH; active site of both monomers; pH 5.0; UDP also in one monomer of 9AR1
Mth375 [4] = biological target: T1, Mth375; test: X-ray crystal structure ([…] and […] Å); conditions: co-crystallised with 1.0 mM UDP; active site; NAD(H) (6PNL) or AMP (6PMH) also bound; 21 °C

`NC(=O)C1=CN([C@@H]2O[C@H](COP(=O)(O)OP(=O)(O)OC[C@H]3O[C@@H](n4cnc5c(N)ncnc54)[C@H](O)[C@@H]3O)[C@@H](O)[C@H]2O)C=CC1` [NADH] was tested, and the “X-ray crystal structure (2.01 Å)” value (Mth375 [1]) was “Mth375_NU contained a single NADH molecule” and the “X-ray crystal structure (1.96 and 2.00 Å)” value (Mth373 [2]) was “Both complexes have interpretable electron density for a molecule of NADH”.

With `O=c1ccn([C@@H]2O[C@H](COP(=O)(O)OP(=O)(O)O)[C@@H](O)[C@H]2O)c(=O)[nH]1` [UDP] the “X-ray crystal structure (2.00 Å)” value (Mth373 [3]) was “A single molecule of UDP was bound to each active site of the Mth373_NU dimer” and the “X-ray crystal structure (2.01 and 2.30 Å)” value (Mth375 [4]) was “A single molecule of UDP was bound to each Mth375 complex”.
